The results in this text go back to patent US20240252502A1, “HDAC6 INHIBITORS FOR TREATMENT OF METABOLIC DISEASE AND HFPEF” (Tenaya Therapeutics, Inc., priority 2021, published 2024).

The test system of this assay is HFD/L-NAME mice (HFpEF model). As to the kind of experiment: HFD/L-NAME HFpEF mouse model, TYA-11018 versus Empagliflozin. The assay is classed as in vivo. The settings on record: 15 mg/kg TYA-11018 or 10 mg/kg Empagliflozin orally once daily for 9 weeks. The method, then:
After HFpEF phenotypes were established, mice received 15 mg/kg TYA-11018 or 10 mg/kg Empagliflozin, or vehicle orally once daily for 9 weeks. Health monitoring was performed weekly with body weights recorded. Glucose tolerance test was performed after 1st dose. Cardiac function was recorded by echocardiography after treatment for 9 weeks. End diastolic pressure (EDP) was measured by PV-Loop at terminal at 9 weeks after dosing.
Animals: Cohort of mice with established HFpEF phenotypes and age/sex matched wild type controls were used for dosing study. […] After acclimation for 1 week, one group of mice was fed with high fat diet containing 0.07% L-NAME (LabDiet 5G5V, St Louis, MO) for 15 weeks. The control group of mice were fed with normal chow (LabDiet 5053, St Louis, MO). […] Animals were housed in an animal research facility in accordance with the National Research Council of the National Academies guidelines for the care and use of laboratory animals.
A second group of mice was fed with standard chow for controls.
Transthoracic echocardiography was performed using a VisualSonics Vevo 2100 system equipped with MS400 transducer (Visual Sonics, Toronto, ON). LVEF and other indices of systolic function were obtained from short-axis M-mode scans at the midventricular level, as indicated by the presence of papillary muscles, in conscious, gently restrained mice. […]
Intraperitoneal glucose-tolerance tests were performed by injection of glucose (2 g/kg in saline) after 6 hour fasting (from 7 a.m. to 1 p.m.). Tail blood glucose levels (mg/dL) were measured by AimStrip Plus blood glucose strips used with the AimStrip Plus blood glucose monitoring system (Germaine Laboratories, San Antonio, TX) at 0 (baseline, before glucose dose), 15, 30, 45, 60 and 120 minutes after glucose administration.
The trachea was exposed by a midline incision from the base of the throat to just above the clavicle. […] The hemodynamic parameters were then recorded in close-chest mode. […]

As to `OC[C@H]1O[C@@H](c2ccc(Cl)c(Cc3ccc(O[C@H]4CCOC4)cc3)c2)[C@H](O)[C@@H](O)[C@@H]1O` [Empagliflozin, empagliflozin], the E/A entry is on record as “decreased” and the “E/e′ ratio” value was “decreased”. In addition, the end diastolic pressure result (PV-Loop) was “reduced end diastolic pressure”.
